Drawing on PubChem BioAssay (NCI), this text covers GI50 and TGI for 20 compounds.

Where “and” joins values, the source holds several entries; their conditions need not be identical. Equal entries are not always repeated.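 Values below derive from 48-hour exposures of cells grown in 96-well plates, with endpoints linearly interpolated between the two concentrations bracketing the appropriate inhibition level. GI50 is the concentration that inhibits growth by half. TGI: concentration producing complete growth inhibition.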

The subject of one test is 786-0 renal. The test can be described thus: growth of human tumour cells (NCI), 48 h.
For the compound `Cc1cc(Nc2nc(SCc3ccc(C(=O)Nc4ccc(F)cc4N)cc3)nn3cccc23)n[nH]1`, the GI50 is 0.466 µM and the TGI worked out at 22 µM.
On the same counts, the results for `COc1ccccc1-c1cc(=O)c2ccc(C)nc2[nH]1` are more than 100 µM and more than 100 µM.
Turning to `OC(c1ccc(Br)cc1)(c1cccs1)C1CC1` (configuration not stated), the TGI amounted to 36 µM.
With `COc1ccc(-c2nnc(N3CCN(C(=O)CN4CCN(c5ccc(OC)cc5)CC4)CC3)nc2-c2ccc(OC)cc2)cc1`, the GI50 was 15.3 µM and the TGI stood at 40.6 µM.
As to `C[n+]1c2ccccc2cc2c(CNC(CCCN=C(N)N)C(=O)O)cccc21` (configuration not stated), the GI50 was 0.443 µM; the TGI is 2.19 µM and 1.59 µM.
For `Cc1cc2c(Br)cc(Br)c(O)c2nc1C(=O)c1ccccc1`, the TGI came out at 28.6 µM.
Take `Cn1cc(-c2csc(-c3cn(C)c4ccccc34)n2)c2cnccc21`: the GI50 was 1.95 µM and the TGI is 3.53 µM.
With `COc1ccccc1/C=C/C(=O)/C=C/c1ccccc1O`, the GI50 is 1.6 µM and the TGI is 3.41 µM.
As for `CC(=O)[O-].CC(=O)[O-].CC(=O)[O-].CC(=O)[O-].[Mo+2].[Mo+2]`, the GI50 is more than 100 µM and the TGI was more than 100 µM.
With `Cc1ccccc1Nc1nc2c(s1)C(=O)c1ccccc1C2=O`, the TGI worked out at 8.47 µM.
On the same count and under the same terms, then `Cc1nnc(N/N=C(/C(=O)C(C#N)c2ccccc2)C(C#N)c2ccccc2)n1N` (configuration not stated), with 25 µM.
Regarding `COc1c(Br)cc(Br)c(OC)c1-c1[nH]c(Br)c(Br)c1Br`, the TGI was determined as 22.8 µM.
As for `OB1OCc2cc(/C=C/c3cccc(C(F)(F)F)c3)ccc21`, the GI50 is 0.365 µM and the TGI stood at 10.1 µM.
The compound `CCOC(=O)c1ccc(N[C@@H]2c3cc4c(cc3C(C3=CC(=O)C(=O)C(OC)=C3)[C@H]3C(=O)OCC32)OCO4)cc1` (some centres not stated) returned a TGI of 4.09 µM.
As to `CNC(SC)=C1C(=O)OC(C)(C)OC1=O`, the TGI is more than 100 µM.
Regarding `Cn1c(/C(C#N)=C/c2ccc3ccccc3c2)cc2ccccc21`, the GI50 was 0.424 µM and the TGI is more than 100 µM.
For `CC(CC(=O)Nc1ccc(NC(=O)CC(C)N=NC(N)=S)cc1)N=NC(N)=S` (configuration not stated), the TGI is more than 100 µM.
As for `CC(C)c1ccccc1NC(=O)/C(Cl)=C1/Sc2ccccc2NC1=O`, the TGI was more than 100 µM.
As to `O=C(O)CCC(NC(=S)S)C(=O)O.[Na+].[Zn+2]` (configuration not stated), the GI50 was more than 50 µM and the TGI is more than 50 µM.
`O=c1c(Cl)c(Cl)cnn1CCc1ccncc1`: the TGI came to 59.6 µM.

The next test concerns CCRF-CEM leukemia. The test can be described thus: growth of human tumour cells (NCI), 48 h.
Regarding `Cc1cc(Nc2nc(SCc3ccc(C(=O)Nc4ccc(F)cc4N)cc3)nn3cccc23)n[nH]1`, the GI50 is 0.411 µM and the TGI is more than 100 µM.
Compound `COc1ccccc1-c1cc(=O)c2ccc(C)nc2[nH]1` gave a TGI of more than 100 µM.
The compound `OC(c1ccc(Br)cc1)(c1cccs1)C1CC1` (configuration not stated) showed a TGI of 91.8 µM.
In the case of `COc1ccc(-c2nnc(N3CCN(C(=O)CN4CCN(c5ccc(OC)cc5)CC4)CC3)nc2-c2ccc(OC)cc2)cc1`, the GI50 is 3.02 µM and the TGI came out at 6.06 µM.
Consider `C[n+]1c2ccccc2cc2c(CNC(CCCN=C(N)N)C(=O)O)cccc21` (configuration not stated), for which the TGI worked out at 0.555 µM.
Consider `Cc1cc2c(Br)cc(Br)c(O)c2nc1C(=O)c1ccccc1`, for which the TGI is more than 100 µM.
With `Cn1cc(-c2csc(-c3cn(C)c4ccccc34)n2)c2cnccc21`, the GI50 was 1.78 µM and the TGI worked out at 3.86 µM.
On the same counts, the results for `COc1ccccc1/C=C/C(=O)/C=C/c1ccccc1O` are 0.2 µM and 0.544 µM.
Consider `CC(=O)[O-].CC(=O)[O-].CC(=O)[O-].CC(=O)[O-].[Mo+2].[Mo+2]`, for which the GI50 was more than 100 µM and the TGI is more than 100 µM.
As for `Cc1ccccc1Nc1nc2c(s1)C(=O)c1ccccc1C2=O`, the TGI was more than 37.5 µM.
On the same count and under the same terms, under `Cc1nnc(N/N=C(/C(=O)C(C#N)c2ccccc2)C(C#N)c2ccccc2)n1N` (configuration not stated) stands 15.9 µM; under `COc1c(Br)cc(Br)c(OC)c1-c1[nH]c(Br)c(Br)c1Br`, 20.5 µM.
With `OB1OCc2cc(/C=C/c3cccc(C(F)(F)F)c3)ccc21`, the GI50 was 0.459 µM and the TGI was 33.7 µM.
`CCOC(=O)c1ccc(N[C@@H]2c3cc4c(cc3C(C3=CC(=O)C(=O)C(OC)=C3)[C@H]3C(=O)OCC32)OCO4)cc1` (some centres not stated) returned a TGI of more than 28.1 µM.
The compound `CNC(SC)=C1C(=O)OC(C)(C)OC1=O` had a TGI of more than 100 µM.
With `Cn1c(/C(C#N)=C/c2ccc3ccccc3c2)cc2ccccc21`, the GI50 was 0.267 µM and the TGI was more than 100 µM.
`CC(CC(=O)Nc1ccc(NC(=O)CC(C)N=NC(N)=S)cc1)N=NC(N)=S` (configuration not stated) yielded a TGI of more than 100 µM.
Regarding `CC(C)c1ccccc1NC(=O)/C(Cl)=C1/Sc2ccccc2NC1=O`, the TGI was determined as 82.8 µM.
`O=C(O)CCC(NC(=S)S)C(=O)O.[Na+].[Zn+2]` (configuration not stated): the GI50 is more than 50 µM and the TGI was more than 50 µM.
With `O=c1c(Cl)c(Cl)cnn1CCc1ccncc1`, the TGI turned out to be 88.8 µM.

The test system of a further test is HCT-116 colon. The test is described as follows: growth of human tumour cells (NCI), 48 h.
Regarding `Cc1cc(Nc2nc(SCc3ccc(C(=O)Nc4ccc(F)cc4N)cc3)nn3cccc23)n[nH]1`, the GI50 was 0.494 µM and the TGI amounted to 20.4 µM.
Regarding `COc1ccccc1-c1cc(=O)c2ccc(C)nc2[nH]1`, the GI50 was 37.6 µM and the TGI is more than 100 µM.
`OC(c1ccc(Br)cc1)(c1cccs1)C1CC1` (configuration not stated): the TGI came out at 33.3 µM.
For `COc1ccc(-c2nnc(N3CCN(C(=O)CN4CCN(c5ccc(OC)cc5)CC4)CC3)nc2-c2ccc(OC)cc2)cc1`, the GI50 was 1.71 µM and the TGI was 3.11 µM.
As for `C[n+]1c2ccccc2cc2c(CNC(CCCN=C(N)N)C(=O)O)cccc21` (configuration not stated), the GI50 is 0.343 µM; the TGI was 1.26 µM and 1.07 µM.
Compound `Cc1cc2c(Br)cc(Br)c(O)c2nc1C(=O)c1ccccc1` registered a TGI of more than 72.8 µM.
`Cn1cc(-c2csc(-c3cn(C)c4ccccc34)n2)c2cnccc21`: the GI50 was 0.925 µM and the TGI came to 2.19 µM.
Consider `COc1ccccc1/C=C/C(=O)/C=C/c1ccccc1O`, for which the GI50 was 0.174 µM and the TGI was 0.379 µM.
